Data: patent US6946467B2, “Serine protease inhibitors” (Eli Lilly and Company, priority 2000, dated 2005)
Where a name gives a salt, the structure may show the parent alone.

| melting point | Compound |
| --- | --- |
| 156 to 169 °C | Cl.N#Cc1cc(CCN2CCN(C(=O)[C@H](NC(=O)c3ccc4cc[nH]c4c3)c3ccccc3)CC2)ccn1 |
| 190 to 192 °C | COc1ccc(C(=O)N[C@@H](C(=O)N2CCN(CCC3CCCC3)CC2)c2ccccc2)cc1 (as salt: hydrochloride) [Example 30, 1-(4-Methoxybenzoyl-D-phenylglycinyl)-4-(2-cyclopentylethyl)piperazine] |
| 135 to 142 °C (dec.) | Cl.O=C(N[C@@H](C(=O)N1CCN(CCc2nccs2)CC1)c1ccccc1)c1ccc2cc[nH]c2c1 |
| 135 to 145 °C (dec.) | O=C(N[C@@H](C(=O)N1CCN(CCc2ccncc2F)CC1)c1ccccc1)c1ccc2cc[nH]c2c1 [Example 58a, 1-[Indole-6-carbonyl-D-phenylglycinyl]-4-[2-(3-fluoropyridin-4-yl)ethyl]piperazine] |
